Reference: paper PMC3062745 (International journal for parasitology, 2011)
pEC50, pKi: −log10 of the molar value. Where two headings read alike, the source gives them in different places. Values belong to the molecule of their own block, whether it stands above or below them.

Tests used:
[1] = target: T1, Leishmania mexicana arginase (LmARG) (Leishmania mexicana, UniProt Q6TUJ5); test: Inhibitor profile of recombinant LmARG; type: biochemical; settings: for inhibition of LmARG / selective inhibition: preference for LmARG over HsARGI / block of LmARG activity (in words): 40 mM compound; for inhibition of LmARG / block of LmARG activity (in words): 40 mM L-arginine substrate; for selective inhibition: preference for LmARG over HsARGI: 40 mM L-arginine, comparison of the two enzymes; for Type of Inhibition: Dixon plot analysis, or assumed where Ki was calculated from panel data; for pKi: Dixon plot analysis; for inhibition: read-out: inhibition of LmARG
human ARGI (HsARGI) [2] = target: T2, human ARGI (HsARGI) (Homo sapiens, UniProt P05089); test: Inhibitor profile of recombinant HsARGI; type: biochemical; settings: for selective inhibition: preference for HsARGI over LmARG / block of HsARGI activity (in words) / inhibition of HsARGI: 40 mM compound; for selective inhibition: preference for HsARGI over LmARG: 40 mM L-arginine, comparison of the two enzymes; for block of HsARGI activity (in words) / inhibition of HsARGI: 40 mM L-arginine substrate; for inhibition at 40000 µM: read-out: inhibition of HsARGI
T2 sequence (P05089 1-322): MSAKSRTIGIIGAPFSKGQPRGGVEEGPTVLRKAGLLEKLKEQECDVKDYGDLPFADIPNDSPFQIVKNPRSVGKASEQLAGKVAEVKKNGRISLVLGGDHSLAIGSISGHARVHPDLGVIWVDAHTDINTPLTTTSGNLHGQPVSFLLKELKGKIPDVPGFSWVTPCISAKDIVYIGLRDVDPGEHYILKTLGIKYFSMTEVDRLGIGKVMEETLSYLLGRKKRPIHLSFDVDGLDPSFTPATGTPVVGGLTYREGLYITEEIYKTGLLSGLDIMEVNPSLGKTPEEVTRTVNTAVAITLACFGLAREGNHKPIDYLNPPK

human ARGI (HsARGI) [3] = target: T2, human ARGI (HsARGI); test: HsARGI kinetic parameters and substrate specificity; type: biochemical; settings: 50 mM, no L-arginine, 30 min
[4] = target: T1, Leishmania mexicana arginase (LmARG); test: LmARG kinetic parameters and substrate specificity; settings: 50 mM, no L-arginine, 30 min; data not shown
[5] = system: Leishmania mexicana promastigotes; test: Parasite proliferation assay; type: cell-based; settings: read-out: EC50 (concentration that inhibited growth by 50%); L. mexicana promastigotes, 5 days, alamarBlue; data not shown
L. major promastigotes = settings: read-out: EC50 against L. major promastigotes; ref Reguera et al., 2009; cited from earlier work
[6] = system: intact L. major promastigotes; settings: ref Kropf et al., 2005; cited from earlier work
[7] = target: T1, Leishmania mexicana arginase (LmARG); type: biochemical; settings: co-activation with manganese and zinc; data not shown
N=C(N)NCCC[C@H](N)C(=O)O = test: purified protein, by the assay type; settings: other: non-linear regression, L-arginine 7.8 – 50 mM; pH 9.5; 37.0 °C

Molecule: NC(CCS)C(=O)O (racemic) [DL-homocysteine]
inhibition of LmARG [1]: > 50%
selective inhibition: preference for LmARG over HsARGI [1]: greater potency toward LmARG

Molecule: Nc1nc2nc(N)[nH]c2c(=O)[nH]1 [8-aminoguanine]
selective inhibition: preference for LmARG over HsARGI [1]: greater potency toward LmARG
Type of Inhibition [1]: Uncompetitive
pKi ([1]; Ki vs. LmARG): > 2.70
inhibition [1]: > 50%
selective inhibition: preference for HsARGI over LmARG (human ARGI (HsARGI) [2]): preferentially inhibited the HsARGI activity

Molecule: N[C@@H](CCCCB(O)O)C(=O)O [ABH, 2(S)-amino-6-boronohexanoic acid]
block of LmARG activity (in words) [1]: completely blocked
Type of Inhibition [1]: Competitive
pKi ([1]; Ki vs. LmARG): 5.89
inhibition [1]: > 50%
pKi (human ARGI (HsARGI) [2]): 5.46
block of HsARGI activity (in words) (human ARGI (HsARGI) [2]): completely blocked
inhibition at 40000 µM (human ARGI (HsARGI) [2]): > 50%

Molecule: N[C@@H](CSCCB(O)O)C(=O)O [BEC, S-(2-boronoethyl)-L-cysteine]
block of LmARG activity (in words) [1]: completely blocked
Type of Inhibition [1]: Competitive
pKi ([1]; Ki vs. LmARG): ~5.00
inhibition [1]: > 50%
pKi (human ARGI (HsARGI) [2]): 4.85
block of HsARGI activity (in words) (human ARGI (HsARGI) [2]): completely blocked

Molecule: NC(N)=NCCC[C@@H](N)C(=O)O [D-arginine]
activity as substrate of HsARGI (human ARGI (HsARGI) [3]): no activity
activity as substrate of LmARG [4]: did not recognize

Molecule: N[C@@H](CS)C(=O)O [L-cysteine]
selective inhibition: preference for LmARG over HsARGI [1]: greater potency toward LmARG
Type of Inhibition [1]: Competitive
pKi ([1]; Ki vs. LmARG): 1.96
inhibition [1]: > 50%
pKi (human ARGI (HsARGI) [2]): < 1.52

inhibition at 40000 µM (human ARGI (HsARGI) [2]): > 50%
Molecule: CC(C)C[C@H](N)C(=O)O [L-leucine]
selective inhibition: preference for HsARGI over LmARG (human ARGI (HsARGI) [2]): preferentially inhibited the HsARGI activity

inhibition at 40000 µM (human ARGI (HsARGI) [2]): > 50%
Molecule: NCCCC[C@H](N)C(=O)O [L-lysine]
selective inhibition: preference for HsARGI over LmARG (human ARGI (HsARGI) [2]): preferentially inhibited the HsARGI activity

inhibition at 40000 µM (human ARGI (HsARGI) [2]): > 50%
Molecule: NCCC[C@H](N)C(=O)O [L-ornithine]
selective inhibition: preference for HsARGI over LmARG (human ARGI (HsARGI) [2]): preferentially inhibited the HsARGI activity

Molecule: N=C(NO)NCCC[C@H](N)C(=O)O [NOHA, N^ω-hydroxy-L-arginine]
block of LmARG activity (in words) [1]: completely blocked
inhibition of LmARG [1]: > 50%
Type of Inhibition [1]: Competitive
pKi ([1]; read-out: Ki vs. LmARG): 4.07
block of HsARGI activity (in words) (human ARGI (HsARGI) [2]): completely blocked
inhibition of HsARGI (human ARGI (HsARGI) [2]): > 50%
pEC50 [5]: 2.22
pEC50 (L. major promastigotes): 4.40

Molecule: NCCCCN=C(N)N [agmatine]
activity as substrate of HsARGI (human ARGI (HsARGI) [3]): no activity
activity as substrate of LmARG [4]: did not recognize

Molecule: OB(O)O [boric acid]
inhibition of LmARG [1]: > 50%
inhibition of HsARGI (human ARGI (HsARGI) [2]): > 50%
selective inhibition: preference for HsARGI over LmARG (human ARGI (HsARGI) [2]): preferentially inhibited the HsARGI activity

Molecule: N=C(NO)NCC[C@H](N)C(=O)O [nor-NOHA, N^ω-hydroxy-nor-L-arginine]
block of LmARG activity (in words) [1]: completely blocked
Type of Inhibition [1]: Competitive
inhibition [1]: > 50%
block of HsARGI activity (in words) (human ARGI (HsARGI) [2]): completely blocked
inhibition at 40000 µM (human ARGI (HsARGI) [2]): > 50%
inhibition of conversion of arginine to ornithine by intact promastigotes [6]: does not inhibit

Molecule: N[C@@H](CCC(=O)N[C@H]1CSSC[C@H](NC(=O)CC[C@H](N)C(=O)O)C(=O)NCC(=O)NCCCNCCCCNC(=O)CNC1=O)C(=O)O [trypanothione]
inhibition of LmARG [1]: > 50%
Type of Inhibition [1]: Uncompetitive
pKi ([1]; read-out: Ki vs. LmARG): > 2.30
inhibition of HsARGI (human ARGI (HsARGI) [2]): > 50%
selective inhibition: preference for HsARGI over LmARG (human ARGI (HsARGI) [2]): preferentially inhibited the HsARGI activity

Molecule: [Cl-].[Cl-].[Zn+2] [zinc, ZnCl2]
LmARG activity on co-activation with manganese [7]: reduced activity to zero

Molecule: Leishmania mexicana arginase (LmARG) (Leishmania mexicana)
Km (N=C(N)NCCC[C@H](N)C(=O)O): 25 ± 4 mM
